test system: MAPK phosphorylation in PANC-1 pancreatic cancer cell line; assay: MAPK cell-based phosphorylation assay (cell-direct ELISA, EGF stimulation); conditions: Homo sapiens
Experimental: Cell lines: Tumor-derived pancreatic cancer cell lines PANC-1 were purchased from ATCC and were maintained according to ATCC recommendation.
Method: Cells were plated at 7500 cells/well density in 96-wells plate, starved over night, and the small molecules to be tested were added to the cells in the final concentration of 30 μM with 0.3% DMSO for 6 hours incubation at 37° C. For IC50 value determination, serial dilutions of compounds were added to cells under the same conditions. Next, cells were stimulated with 1.5 ng/ml EGF for 15 min. followed by cell fixation with 4% Formaldehyde in PBS at RT for 20 min. Phosphorylation level of MAPK was determined by Cell-direct ELISA.
Cell-direct ELISA: For each well, cells were permeabilized with PBS-Triton 0.1%, quenched with H2O2 0.6% in PBS-Triton 0.1%, and probed with anti-phospho-MAPK antibodies (R&D Systems) followed by HRP-conjugated secondary antibody (Jackson Immunoresearch, West Grove, Pa.). Next, a solution 50 μM of the fluorescent substrate AmpliFlu Red (Sigma) was added and incubated at RT for 20 min. At the end of the incubation time, fluorescence was measured at 595 nm on a microplate reader (AF2200; Eppendorf, Inc., Hamburg, Germany).

`CC(C)(C)c1ccc(-c2csc3c(O)nc(-c4ccccn4)nc23)cc1` [drawing 1191] and `Oc1nc(-c2ccccn2)nc2c(-c3ccc(F)cc3F)csc12` [drawing 1210] fall in the same range of IC50: 2 to 10 µM for the first, 2 to 10 µM for the second.

Compound `COc1ccnc(-c2nc(O)c3c(Br)csc3n2)c1` [drawing 1133] has an IC50 of 2 to 10 µM.

same assay, conditions: Homo sapiens, * = tested at 10 μM

`Oc1nc(-c2ccccn2)nc2c(-c3ccc4c(c3)CCCO4)csc12` [drawing 1238] and `Oc1nc(-c2ccccn2)nc2c(-c3ccc(F)cc3F)csc12` [drawing 1210] fall in the same range of inhibition at 10 µM: 76 to 100% for the first, 76 to 100% for the second.

`O=C(NCCc1cnc(O)nc1)c1csc2nc(-c3ccccn3)nc(N3CCS(=O)(=O)CC3)c12` [drawing 1196] and `COc1ccc(CCNC(=O)c2csc3nc(-c4ccccn4)nc(N4CCS(=O)(=O)CC4)c23)cn1` [drawing 1195] fall in the same range of inhibition at 10 µM: 1 to 25% for the first, 1 to 25% for the second.

Compared with `COCCNc1nc(-c2ccccn2)nc2sc(-c3ccccc3)c(-c3ccccn3)c12` [drawing 1380], `COCCNc1nc(-c2nccn2C)nc2sc(-c3ccccc3)c(-c3ccccn3)c12` [drawing 1382] is higher in inhibition at 10 µM: 0% for the first, 51 to 75% for the second.

Compared with `CC(O)CNc1nc(-c2nccn2C)nc2sc(-c3ccccc3)c(-c3ccccc3)c12` (centres unmarked) [drawing 1329], `COCCNc1nc(-c2nccn2C)nc2sc(-c3ccccc3)c(-c3ccccc3)c12` [drawing 1295] is higher in inhibition at 10 µM: 1 to 25% for the first, 76 to 100% for the second.

First: Cc1sc2c(O)nc(-c3nccn3C)nc2c1-c1ccc(F)cc1F [drawing 1381]
Second: COc1ccc(-c2csc3c(O)nc(-c4nccn4C)nc23)cn1 [drawing 1373]
The inhibition at 10 µM of the first is lower: 0% for the first, 51 to 75% for the second.

`COc1nc(-c2ccccn2)nc2c(C3CCCC3)csc12` [drawing 1244] and `COc1ccccc1-c1csc2c(O)nc(-c3ccccn3)nc12` [drawing 1209] fall in the same range of inhibition at 10 µM: 1 to 25% for the first, 1 to 25% for the second.

Compared with `Oc1nc(-c2ncccn2)nc2c(-c3cccc(C(F)(F)F)c3)csc12` [drawing 1368], `CC(C)(C)c1ccc(-c2csc3c(O)nc(-c4ccccn4)nc23)cc1` [drawing 1191] is higher in inhibition at 10 µM: 1 to 25% for the first, 76 to 100% for the second.

First: CC(C)COc1ccc(-c2csc3c(O)nc(-c4ccccn4)nc23)cn1 [drawing 1216]
Second: Nc1nc(-c2ccccn2)nc2c(-c3ccccc3)csc12 [drawing 1201]
The inhibition at 10 µM of the first is higher: 51 to 75% for the first, 25 to 50% for the second.

Compared with `COC(=O)c1c(C)sc2c(O)nc(-c3ccccn3)nc12` [drawing 1247], `COC(=O)c1c(C)sc2c(N)nc(-c3ccccn3)nc12` [drawing 1260] is higher in inhibition at 10 µM: 1 to 25% for the first, 25 to 50% for the second.

First: Cn1ccnc1-c1nc(O)c2scc(-c3ccccc3Cl)c2n1 [drawing 1375]
Second: Cn1ccnc1-c1nc(O)c2sc(-c3ccccc3)c(-c3ccccc3)c2n1 [drawing 1348]
The inhibition at 10 µM of the first is lower: 25 to 50% for the first, 51 to 75% for the second.

First: O=C(NCCc1ccncn1)c1csc2nc(-c3ccccn3)nc(N3CCOCC3)c12 [drawing 1261]
Second: COCCNc1nc(-c2nccn2C)nc2sc(C)c(-c3ccccc3)c12 [drawing 1344]
The inhibition at 10 µM of the first is lower: 0% for the first, 51 to 75% for the second.

`Cc1sc2c(N)nc(-c3ccccn3)nc2c1Br` [drawing 1230] and `NC(=O)C1CCCN1C(=O)c1cccc(-c2cc3nc(N)nc(O)c3s2)c1` (centres unmarked) [drawing 1304] fall in the same range of inhibition at 10 µM: 1 to 25% for the first, 1 to 25% for the second.

Compound `Cn1ccnc1-c1nc(NCCOC2CC2)c2c(-c3ccccc3)c(-c3ccccc3)sc2n1` [drawing 1336] has an inhibition at 10 µM of 76 to 100%.

same assay, conditions: Homo sapiens, at 30 μM

`Brc1csc2nc(-c3ccccn3)nc(N3CCOCC3)c12` [drawing 1079] and `O=C(NCCc1ccc(O)nc1)c1csc2nc(-c3ccccn3)nc(N3CCOCC3)c12` [drawing 1168] fall in the same range of inhibition at 30 µM: 1 to 25% for the first, 1 to 25% for the second.

`O=C(Nc1nnc(-c2ccccn2)[nH]1)c1ccc(CN2C(=O)CCC2=O)cc1` [drawing 1004] and `O=C(Cc1ccc2c(c1)OCCO2)Nc1nnc(-c2ccccn2)[nH]1` [drawing 1026] fall in the same range of inhibition at 30 µM: 1 to 25% for the first, 1 to 25% for the second.

First: O=C(c1csc2c(O)nc(-c3ccccn3)nc12)N1CCN(c2ccncc2)CC1 [drawing 1069]
Second: N#Cc1ccccc1N1CCN(C(=O)c2csc3c(O)nc(-c4ccccn4)nc23)CC1 [drawing 1122]
The inhibition at 30 µM of the first is higher: 25 to 50% for the first, 1 to 25% for the second.

Compared with `CON(C)c1nc(-c2ccccn2)nc2scc(-c3ccccc3)c12` [drawing 1095], `NC(=O)C1CCCN(c2nc(-c3ccccn3)nc3scc(-c4ccccc4)c23)C1` (centres unmarked) [drawing 1107] is lower in inhibition at 30 µM: 25 to 50% for the first, 1 to 25% for the second.

First: CCCNC(=O)CN1CCN(c2nc(-c3ccccn3)nc3sc(-c4ccccc4)cc23)CC1 [drawing 1086]
Second: O=C(CC(c1ccccc1)c1ccccc1)N1CCCc2c(O)nc(-c3ccccn3)nc21 [drawing 1061]
The inhibition at 30 µM of the first is higher: 76 to 100% for the first, 1 to 25% for the second.

`O=C(c1csc2c(O)nc(-c3ccccn3)nc12)N1CCNC(c2ccc(F)cc2)C1` (centres unmarked) [drawing 1167] and `O=C(c1csc2c(O)nc(-c3ccccn3)nc12)N1CCNC(c2cccc(F)c2)C1` (centres unmarked) [drawing 1130] fall in the same range of inhibition at 30 µM: 1 to 25% for the first, 1 to 25% for the second.

`N#Cc1ccc(CC(=O)Cc2ccnc(-c3ccccn3)n2)cc1` and `COc1ccc2c(c1)CCC2C(=O)Nc1ccnc(-c2ccccn2)n1` (centres unmarked) [drawing 1159] fall in the same range of inhibition at 30 µM: 1 to 25% for the first, 1 to 25% for the second.

`COc1ccc(COCC(=O)N2CCCc3c(O)nc(-c4ccccn4)nc32)cc1` [drawing 1057] and `COc1ccnc(-c2nc(O)c3c(Cl)csc3n2)c1` [drawing 1162] fall in the same range of inhibition at 30 µM: 1 to 25% for the first, 1 to 25% for the second.

`CCOc1cc(S(=O)(=O)N(Cc2ccccc2)Cc2ccccc2)c(OCC)cc1C` [drawing 1049] and `O=C(Nc1nnc(-c2ccccn2)[nH]1)c1ccn(-c2ccccc2)n1` [drawing 998] fall in the same range of inhibition at 30 µM: 1 to 25% for the first, 1 to 25% for the second.

For `COc1ccnc(-c2nc(O)c3c(Br)csc3n2)c1` [drawing 1133], the inhibition at 30 µM was 76 to 100%.

test system: MIA-PACA2 pancreatic cancer cell lines; assay: Cell proliferation assay (CellTiter 96 AQueous One); type: cell-based; conditions: Homo sapiens, MIA PaCa-2; MIA-PACA2, same assay as the % inhibition (standard conditions)

`COc1ccnc(-c2nc(O)c3ccsc3n2)c1` [drawing 1631] and `CC(C)(C)c1ccc(-c2csc3c(O)nc(-c4ccccn4)nc23)cc1` [drawing 1723] fall in the same range of IC50: 100 to 500 nM for the first, 100 to 500 nM for the second.

same assay, conditions: Homo sapiens, MIA PaCa-2; at 30 μM, MIA-PACA2

First: COC(=O)C(C)CN(Cc1ccccc1)c1nc(C(F)(F)F)ccc1C#N (centres unmarked) [drawing 1536]
Second: CN(CCc1cccc(C#N)c1)C(=O)c1csc2nc(-c3ccccn3)nc(N3CCOCC3)c12 [drawing 1681]
The inhibition at 30 µM of the first is lower: 51 to 75% for the first, 76 to 100% for the second.

`COc1ccc(-c2csc3c(O)nc(-c4ccccn4)nc23)c(C)c1` [drawing 1757] and `CC(C)(C)c1ccc(-c2csc3c(O)nc(-c4ccccn4)nc23)cc1` [drawing 1723] fall in the same range of inhibition at 30 µM: 76 to 100% for the first, 76 to 100% for the second.

Compared with `O=C(Nc1nnc(-c2ccccn2)[nH]1)C1CCn2c(cnc2-c2ccccc2)C1` (centres unmarked) [drawing 1389], `COc1ccccc1C1CC1C(=O)Nc1nnc(-c2ccccn2)[nH]1` (centres unmarked) [drawing 1447] is higher in inhibition at 30 µM: 1 to 25% for the first, 25 to 50% for the second.

`O=C(Nc1nnc(-c2ccccn2)[nH]1)C1CCN(C(=O)c2cccs2)CC1` [drawing 1465] and `O=C(Nc1nnc(-c2ccccn2)[nH]1)c1ncoc1-c1cccs1` [drawing 1416] fall in the same range of inhibition at 30 µM: 76 to 100% for the first, 76 to 100% for the second.

Compared with `Nc1nc(O)c2scc(C(=O)N3CCc4ccccc4CC3)c2n1` [drawing 1561], `O=C(c1csc2c(O)nc(-c3ccccn3)nc12)N1CCN(c2ccncc2)CC1` [drawing 1570] is higher in inhibition at 30 µM: 1 to 25% for the first, 76 to 100% for the second.

First: O=C(COc1ccc(F)cc1F)Nc1nnc(-c2ccccn2)[nH]1 [drawing 1388]
Second: COc1ccc2c(ccn2CC(=O)Nc2nnc(-c3ccccn3)[nH]2)c1 [drawing 1399]
The inhibition at 30 µM of the first is lower: 51 to 75% for the first, 76 to 100% for the second.

`O=C(CN1CCN(c2nc(-c3ccccn3)nc3scc(-c4ccccc4)c23)CC1)N1CCCC1` [drawing 1620] and `c1ccc(-c2csc3nc(-c4ccccn4)nc(N4CCN(Cc5cccnc5)CC4)c23)cc1` [drawing 1602] fall in the same range of inhibition at 30 µM: 76 to 100% for the first, 76 to 100% for the second.

First: COc1ccc(C2CN(C(=O)c3csc4c(O)nc(-c5ccccn5)nc34)CCO2)cc1 (centres unmarked) [drawing 1661]
Second: O=C(c1csc2c(O)nc(-c3ccccn3)nc12)N1CCOC(CN2CCOCC2)C1 (centres unmarked) [drawing 1698]
The inhibition at 30 µM of the first is higher: 76 to 100% for the first, 51 to 75% for the second.

First: O=C(Nc1nc(-c2ccccn2)cs1)c1ccc(F)cc1 [drawing 1486]
Second: O=C(CCc1c[nH]c2ccccc12)Nc1nnc(-c2ccccn2)[nH]1 [drawing 1400]
The inhibition at 30 µM of the first is higher: 76 to 100% for the first, 51 to 75% for the second.

`O=C(c1csc2c(O)nc(-c3ccccn3)nc12)N1CC2CC1CN2c1ccccc1` (centres unmarked) [drawing 1714] and `COCCCC1CCN(C(=O)c2csc3c(O)nc(-c4ccccn4)nc23)CC1` [drawing 1566] fall in the same range of inhibition at 30 µM: 76 to 100% for the first, 76 to 100% for the second.

`COC(=O)c1cc(NCc2nc(CC(C)C)no2)ccc1Cl` [drawing 1518] and `COc1ccnc(-c2nc(O)c3ccsc3n2)c1` [drawing 1631] fall in the same range of inhibition at 30 µM: 76 to 100% for the first, 76 to 100% for the second.

First: O=C(c1ccc(=O)[nH]n1)N1CCCc2c(O)nc(-c3ccccn3)nc21 [drawing 1548]
Second: Brc1csc2nc(-c3ccccn3)nc(N3CCOCC3)c12 [drawing 1587]
The inhibition at 30 µM of the first is higher: 76 to 100% for the first, 25 to 50% for the second.

`COc1ccc(OCc2nc(CNCCc3nnc4n3CCC4)cs2)cc1` [drawing 1472] and `COc1nc(-c2ccccn2)nc2c(C3CCCC3)csc12` [drawing 1793] fall in the same range of inhibition at 30 µM: 76 to 100% for the first, 76 to 100% for the second.

`COc1ccnc(-c2nc(O)c3c(C(F)(F)F)csc3n2)c1` [drawing 1709] and `Cc1sc2nc(-c3ccccn3)nc(NCCCO)c2c1-c1ccccc1` [drawing 1516] fall in the same range of inhibition at 30 µM: 76 to 100% for the first, 76 to 100% for the second.

First: CNC(=O)c1sc2[nH]c(-c3ccccn3)nc(=O)c2c1C [drawing 1491]
Second: CCCOc1ccc2ccccc2c1CN(C)S(=O)(=O)N1CC(C)OC(C)C1 (centres unmarked) [drawing 1531]
The inhibition at 30 µM of the first is lower: 51 to 75% for the first, 76 to 100% for the second.

For `COc1cnc(C2CCCN2)nc1O` (centres unmarked) [drawing 1792], the inhibition at 30 µM was 51 to 75%.

Source: patent publication US10940139B2, “Compounds that interact with the Ras superfamily for the treatment of cancers, inflammatory diseases, rasopathies, and fibrotic disease” (Shy Therapeutics LLC, priority 2017, dated 2021)
